From paper PMC7613998, “Development of selective inhibitors of phosphatidylinositol 3-kinase C2α” (Nature Chemical Biology, 2022)

Tests used:
Assay in all cases: biochemical
Set-up in all cases: SelectScreen LanthaScreen kinase binding assay, per cent tracer displacement, mean of two points
Settings in all cases: tracer displacement
[1] = biological target: MKNK2 (MNK2) (Homo sapiens, UniProt Q9HBH9)
[2] = biological target: WNK1 (Homo sapiens, UniProt Q9H4A3)
[3] = biological target: CDK2/cyclin O (Homo sapiens, UniProt P24941)
[4] = biological target: T1, TGFBR1 (ALK5) (Homo sapiens, UniProt P36897)
T1 sequence (P36897 1-503): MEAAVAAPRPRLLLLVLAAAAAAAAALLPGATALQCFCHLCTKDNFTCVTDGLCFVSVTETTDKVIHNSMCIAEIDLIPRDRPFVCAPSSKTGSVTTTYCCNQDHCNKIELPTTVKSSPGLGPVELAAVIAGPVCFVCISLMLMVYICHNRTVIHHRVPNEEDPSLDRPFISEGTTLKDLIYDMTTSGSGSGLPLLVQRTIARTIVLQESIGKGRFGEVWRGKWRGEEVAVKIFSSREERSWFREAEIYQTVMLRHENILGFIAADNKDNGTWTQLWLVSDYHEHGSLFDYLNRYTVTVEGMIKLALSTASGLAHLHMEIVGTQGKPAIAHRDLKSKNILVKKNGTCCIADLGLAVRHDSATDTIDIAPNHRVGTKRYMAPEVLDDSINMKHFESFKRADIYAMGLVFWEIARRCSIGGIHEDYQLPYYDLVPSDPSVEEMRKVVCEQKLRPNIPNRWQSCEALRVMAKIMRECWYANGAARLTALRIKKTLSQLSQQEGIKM

[5] = biological target: KIT D816V (Homo sapiens, UniProt P10721, D816V)
[6] = biological target: CDK9/cyclin K (Homo sapiens, UniProt P50750)
[7] = biological target: CDK3/cyclin E1 (Homo sapiens, UniProt Q00526)
[8] = biological target: MAP2K1 (MEK1) (Homo sapiens, UniProt Q02750)
[9] = biological target: STK32C (YANK3) (Homo sapiens, UniProt Q86UX6)
[10] = biological target: T2, ADCK3 (Homo sapiens, UniProt Q8NI60)
T2 construct: gene COQ8A

[11] = biological target: BRAF (Homo sapiens, UniProt P15056)

MKNK2 (MNK2), sequence (Q9HBH9 whole entry): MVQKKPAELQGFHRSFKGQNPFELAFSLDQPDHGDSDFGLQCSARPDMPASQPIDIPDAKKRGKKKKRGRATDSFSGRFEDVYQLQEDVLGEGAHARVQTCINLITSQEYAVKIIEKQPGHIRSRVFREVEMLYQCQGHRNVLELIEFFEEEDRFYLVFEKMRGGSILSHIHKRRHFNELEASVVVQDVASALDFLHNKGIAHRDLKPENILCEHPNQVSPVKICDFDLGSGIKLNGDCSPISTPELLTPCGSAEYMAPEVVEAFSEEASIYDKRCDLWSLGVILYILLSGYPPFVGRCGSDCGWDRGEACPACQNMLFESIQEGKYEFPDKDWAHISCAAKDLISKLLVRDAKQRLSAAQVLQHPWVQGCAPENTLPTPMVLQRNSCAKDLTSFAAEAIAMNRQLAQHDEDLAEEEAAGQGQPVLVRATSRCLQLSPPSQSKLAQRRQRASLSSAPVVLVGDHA
WNK1, sequence (Q9H4A3 whole entry): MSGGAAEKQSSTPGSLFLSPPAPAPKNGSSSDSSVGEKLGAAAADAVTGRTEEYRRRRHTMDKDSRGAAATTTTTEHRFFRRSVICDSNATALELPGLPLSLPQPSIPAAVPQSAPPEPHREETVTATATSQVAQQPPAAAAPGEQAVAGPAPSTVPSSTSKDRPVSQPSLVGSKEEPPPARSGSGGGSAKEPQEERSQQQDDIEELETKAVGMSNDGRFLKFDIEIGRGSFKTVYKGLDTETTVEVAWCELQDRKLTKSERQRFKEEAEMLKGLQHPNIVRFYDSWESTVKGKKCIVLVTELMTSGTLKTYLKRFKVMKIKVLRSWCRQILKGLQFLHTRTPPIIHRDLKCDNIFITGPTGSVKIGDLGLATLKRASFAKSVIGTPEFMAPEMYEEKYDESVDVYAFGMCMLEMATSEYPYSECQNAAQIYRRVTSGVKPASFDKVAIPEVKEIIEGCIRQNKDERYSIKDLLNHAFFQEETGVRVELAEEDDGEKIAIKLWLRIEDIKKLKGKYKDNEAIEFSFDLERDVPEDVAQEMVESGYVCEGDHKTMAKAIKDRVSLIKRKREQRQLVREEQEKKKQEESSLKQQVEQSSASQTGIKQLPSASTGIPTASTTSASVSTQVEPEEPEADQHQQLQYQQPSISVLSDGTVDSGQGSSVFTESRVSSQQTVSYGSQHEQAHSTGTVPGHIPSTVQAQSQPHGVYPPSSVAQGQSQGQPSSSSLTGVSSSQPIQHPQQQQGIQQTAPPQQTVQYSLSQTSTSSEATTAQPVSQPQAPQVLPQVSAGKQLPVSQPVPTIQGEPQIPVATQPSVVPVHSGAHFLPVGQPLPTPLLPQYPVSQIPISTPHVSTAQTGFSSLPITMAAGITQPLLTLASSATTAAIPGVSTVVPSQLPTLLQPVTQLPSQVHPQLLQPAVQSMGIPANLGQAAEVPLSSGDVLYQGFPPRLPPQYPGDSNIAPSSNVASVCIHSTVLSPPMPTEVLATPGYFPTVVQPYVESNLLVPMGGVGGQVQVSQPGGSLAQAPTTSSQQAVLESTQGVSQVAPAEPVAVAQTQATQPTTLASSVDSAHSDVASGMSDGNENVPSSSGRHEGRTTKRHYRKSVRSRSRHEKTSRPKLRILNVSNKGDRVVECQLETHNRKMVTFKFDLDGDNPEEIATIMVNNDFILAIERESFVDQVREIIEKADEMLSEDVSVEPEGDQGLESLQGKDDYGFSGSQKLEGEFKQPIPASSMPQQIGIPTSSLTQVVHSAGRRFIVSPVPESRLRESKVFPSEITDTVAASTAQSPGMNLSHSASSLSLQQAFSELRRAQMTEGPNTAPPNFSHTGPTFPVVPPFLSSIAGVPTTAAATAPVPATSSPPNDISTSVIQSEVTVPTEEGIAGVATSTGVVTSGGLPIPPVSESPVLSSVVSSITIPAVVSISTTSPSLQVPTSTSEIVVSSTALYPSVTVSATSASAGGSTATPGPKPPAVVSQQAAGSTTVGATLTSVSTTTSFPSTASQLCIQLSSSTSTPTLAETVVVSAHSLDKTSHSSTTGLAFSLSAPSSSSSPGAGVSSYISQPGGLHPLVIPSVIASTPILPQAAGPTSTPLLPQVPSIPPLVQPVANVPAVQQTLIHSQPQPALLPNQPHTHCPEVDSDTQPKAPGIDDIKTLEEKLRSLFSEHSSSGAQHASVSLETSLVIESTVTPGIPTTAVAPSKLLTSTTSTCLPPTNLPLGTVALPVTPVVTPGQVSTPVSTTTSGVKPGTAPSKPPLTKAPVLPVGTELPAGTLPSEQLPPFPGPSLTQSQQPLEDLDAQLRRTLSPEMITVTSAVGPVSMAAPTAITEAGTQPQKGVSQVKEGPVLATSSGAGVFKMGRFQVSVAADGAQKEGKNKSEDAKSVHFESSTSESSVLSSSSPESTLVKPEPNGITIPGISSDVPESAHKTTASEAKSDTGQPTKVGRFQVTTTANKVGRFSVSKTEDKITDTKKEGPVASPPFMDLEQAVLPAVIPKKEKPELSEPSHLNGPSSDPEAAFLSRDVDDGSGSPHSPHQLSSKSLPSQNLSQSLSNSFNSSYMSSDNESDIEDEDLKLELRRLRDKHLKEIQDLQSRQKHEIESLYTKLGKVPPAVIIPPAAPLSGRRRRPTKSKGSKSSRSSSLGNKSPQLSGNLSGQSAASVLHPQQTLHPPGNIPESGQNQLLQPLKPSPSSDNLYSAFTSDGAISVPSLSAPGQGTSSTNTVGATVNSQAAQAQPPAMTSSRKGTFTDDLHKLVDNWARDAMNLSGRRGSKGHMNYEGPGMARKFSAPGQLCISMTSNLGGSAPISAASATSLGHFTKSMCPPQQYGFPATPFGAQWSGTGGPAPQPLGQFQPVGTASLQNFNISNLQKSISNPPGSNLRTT
T2 sequence (Q8NI60 whole entry): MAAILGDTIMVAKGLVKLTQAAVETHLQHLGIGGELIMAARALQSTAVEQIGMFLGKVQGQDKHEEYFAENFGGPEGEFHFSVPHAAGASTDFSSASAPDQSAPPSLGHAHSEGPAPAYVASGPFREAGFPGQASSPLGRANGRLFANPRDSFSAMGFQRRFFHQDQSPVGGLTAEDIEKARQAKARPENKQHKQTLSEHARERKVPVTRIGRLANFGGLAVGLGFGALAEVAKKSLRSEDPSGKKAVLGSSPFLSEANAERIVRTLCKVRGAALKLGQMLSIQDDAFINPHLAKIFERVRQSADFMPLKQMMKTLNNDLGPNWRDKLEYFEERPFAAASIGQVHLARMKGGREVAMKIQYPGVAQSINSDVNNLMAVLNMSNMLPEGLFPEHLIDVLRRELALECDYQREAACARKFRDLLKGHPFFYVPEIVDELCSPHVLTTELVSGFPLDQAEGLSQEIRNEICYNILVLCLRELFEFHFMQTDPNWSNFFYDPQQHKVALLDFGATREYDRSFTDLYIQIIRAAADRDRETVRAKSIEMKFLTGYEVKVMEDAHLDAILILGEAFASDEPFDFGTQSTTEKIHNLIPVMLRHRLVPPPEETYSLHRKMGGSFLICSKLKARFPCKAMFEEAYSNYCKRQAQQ
STK32C (YANK3), sequence (Q86UX6 whole entry): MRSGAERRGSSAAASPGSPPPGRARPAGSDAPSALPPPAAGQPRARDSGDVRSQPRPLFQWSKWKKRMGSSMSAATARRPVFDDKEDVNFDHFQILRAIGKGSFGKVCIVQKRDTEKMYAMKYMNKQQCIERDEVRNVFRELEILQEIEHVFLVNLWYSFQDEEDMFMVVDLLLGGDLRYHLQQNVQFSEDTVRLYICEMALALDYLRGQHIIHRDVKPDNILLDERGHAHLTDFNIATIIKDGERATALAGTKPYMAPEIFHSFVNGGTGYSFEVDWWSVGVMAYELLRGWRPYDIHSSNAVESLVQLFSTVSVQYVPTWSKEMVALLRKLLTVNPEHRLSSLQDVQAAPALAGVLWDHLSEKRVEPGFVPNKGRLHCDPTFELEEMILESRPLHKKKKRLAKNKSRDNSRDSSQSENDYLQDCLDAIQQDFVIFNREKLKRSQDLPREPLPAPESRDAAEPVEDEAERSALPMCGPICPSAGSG
CDK9/cyclin K, sequence (P50750 whole entry): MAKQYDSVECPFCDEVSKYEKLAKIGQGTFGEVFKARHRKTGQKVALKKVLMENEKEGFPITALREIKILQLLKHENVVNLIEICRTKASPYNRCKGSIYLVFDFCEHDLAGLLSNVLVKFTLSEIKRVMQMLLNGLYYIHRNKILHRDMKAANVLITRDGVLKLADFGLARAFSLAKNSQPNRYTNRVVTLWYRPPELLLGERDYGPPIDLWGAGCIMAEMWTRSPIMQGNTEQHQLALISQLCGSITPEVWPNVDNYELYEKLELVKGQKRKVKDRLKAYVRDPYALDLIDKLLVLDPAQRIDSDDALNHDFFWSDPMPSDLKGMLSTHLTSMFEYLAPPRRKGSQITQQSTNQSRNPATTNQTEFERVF
CDK9/cyclin K, sequence (O75909 whole entry partner): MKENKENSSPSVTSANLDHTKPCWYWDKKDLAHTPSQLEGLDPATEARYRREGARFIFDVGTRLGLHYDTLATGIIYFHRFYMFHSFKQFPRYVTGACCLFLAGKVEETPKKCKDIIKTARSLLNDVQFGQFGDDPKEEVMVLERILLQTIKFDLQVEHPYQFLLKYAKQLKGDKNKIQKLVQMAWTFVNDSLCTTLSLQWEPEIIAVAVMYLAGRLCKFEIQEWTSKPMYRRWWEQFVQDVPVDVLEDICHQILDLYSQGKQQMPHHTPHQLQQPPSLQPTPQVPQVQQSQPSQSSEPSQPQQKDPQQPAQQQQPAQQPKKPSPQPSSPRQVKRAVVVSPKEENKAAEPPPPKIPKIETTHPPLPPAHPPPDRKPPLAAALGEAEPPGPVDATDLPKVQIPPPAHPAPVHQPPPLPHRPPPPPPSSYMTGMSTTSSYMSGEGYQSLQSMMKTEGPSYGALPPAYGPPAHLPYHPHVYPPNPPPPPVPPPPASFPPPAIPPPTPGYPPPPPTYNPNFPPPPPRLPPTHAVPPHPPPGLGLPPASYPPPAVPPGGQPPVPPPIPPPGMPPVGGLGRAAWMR

For `O=C(CSc1nc2nccnc2c(=O)n1CCc1ccccc1)Nc1nccs1` [compound 1, PITCOIN1], which inhibition at 1 µM [1] is on record?
The inhibition at 1 µM was -2.8%.

And the inhibition at 3 µM [1]?
Its inhibition at 3 µM is -3.55%.

And the inhibition at 10 µM [1]?
The inhibition at 10 µM was -10.1%.

What about the inhibition at 1 µM [2] of the same compound?
Its inhibition at 1 µM is -6.21%.

And the inhibition at 3 µM [2]?
Its inhibition at 3 µM is -5.06%.

And the inhibition at 10 µM [2]?
Its inhibition at 10 µM is -3.46%.

What about the inhibition at 1 µM [3] of the same compound?
Its inhibition at 1 µM is 17.6%.

And the inhibition at 3 µM [3]?
Its inhibition at 3 µM is -4.45%.

What about the inhibition at 10 µM [3] of the same compound?
Its inhibition at 10 µM is 7.96%.

What about the inhibition at 1 µM [4] of the same compound?
The inhibition at 1 µM was -5.43%.

What about the inhibition at 3 µM [4] of the same compound?
Its inhibition at 3 µM is 9.69%.

And the inhibition at 10 µM [4]?
Its inhibition at 10 µM is 5.12%.

What about the inhibition at 1 µM [5] of the same compound?
The inhibition at 1 µM was -3.29%.

And the inhibition at 3 µM [5]?
The inhibition at 3 µM was 2.7%.

And the inhibition at 10 µM [5]?
Its inhibition at 10 µM is -1.13%.

And the inhibition at 1 µM [6]?
Its inhibition at 1 µM is -2.66%.

What about the inhibition at 3 µM [6] of the same compound?
Its inhibition at 3 µM is -5.46%.

What about the inhibition at 10 µM [6] of the same compound?
Its inhibition at 10 µM is -1.18%.

And the inhibition at 1 µM [7]?
The inhibition at 1 µM was -0.974%.

What about the inhibition at 3 µM [7] of the same compound?
Its inhibition at 3 µM is -9.41%.

What about the inhibition at 10 µM [7] of the same compound?
Its inhibition at 10 µM is 1.77%.

What about the inhibition at 1 µM [8] of the same compound?
The inhibition at 1 µM was -0.281%.

And the inhibition at 3 µM [8]?
Its inhibition at 3 µM is 2.33%.

And the inhibition at 10 µM [8]?
Its inhibition at 10 µM is -0.179%.

What about the inhibition at 1 µM [9] of the same compound?
Its inhibition at 1 µM is -7%.

What about the inhibition at 3 µM [9] of the same compound?
The inhibition at 3 µM was -1.98%.

And the inhibition at 10 µM [9]?
The inhibition at 10 µM was -5.28%.

And the inhibition at 1 µM [10]?
The inhibition at 1 µM was -3.76%.

And the inhibition at 3 µM [10]?
Its inhibition at 3 µM is 8.79%.

What about the inhibition at 10 µM [10] of the same compound?
Its inhibition at 10 µM is 13.7%.

What about the inhibition at 1 µM [11] of the same compound?
Its inhibition at 1 µM is -3.95%.

And the inhibition at 3 µM [11]?
Its inhibition at 3 µM is 1.69%.

What about the inhibition at 10 µM [11] of the same compound?
The inhibition at 10 µM was 0.837%.

What does the source list for `CS(=O)(=O)Nc1cccc(-c2csc(NC(=O)CSc3nc4nccnc4c(=O)n3CCc3ccccc3)n2)c1` [compound 3, PITCOIN3]?
inhibition at 1 µM [1]: -4.48%; inhibition at 3 µM [1]: 1.13%; inhibition at 10 µM [1]: -10.9%; inhibition at 1 µM [2]: -2.33%; inhibition at 3 µM [2]: -3.62%; inhibition at 10 µM [2]: 0.594%; inhibition at 1 µM [3]: 18.1%; inhibition at 3 µM [3]: 11.6%; inhibition at 10 µM [3]: 2.75%; inhibition at 1 µM [4]: -4.81%; inhibition at 3 µM [4]: 14.1%; inhibition at 10 µM [4]: 1.48%; inhibition at 1 µM [5]: 6.33%; inhibition at 3 µM [5]: 6.29%; inhibition at 10 µM [5]: 5.56%; inhibition at 1 µM [6]: 0.179%; inhibition at 3 µM [6]: -3.08%; inhibition at 10 µM [6]: -7.54%; inhibition at 1 µM [7]: 13.1%; inhibition at 3 µM [7]: 8.71%; inhibition at 10 µM [7]: -18.8%; inhibition at 1 µM [8]: -0.643%; inhibition at 3 µM [8]: 0.136%; inhibition at 10 µM [8]: -2.2%; inhibition at 1 µM [9]: 8.19%; inhibition at 3 µM [9]: -2.39%; inhibition at 10 µM [9]: -8.61%; inhibition at 1 µM [10]: 8.78%; inhibition at 3 µM [10]: 18.3%; inhibition at 10 µM [10]: 9.67%; inhibition at 1 µM [11]: 6.15%; inhibition at 3 µM [11]: 7.18%; inhibition at 10 µM [11]: 9.11%
